{
  "source": "paper PMC12417329",
  "about": "(Food Science & Nutrition, 2025)",
  "key": {"[1]": {"test_system": "HPU", "settings": "ref Xiao et al. [2007]; cited from earlier work"}, "[2]": {"target": "T1, jack bean urease (JBU) (Canavalia ensiformis, UniProt P07374)", "T1 construct": "Jack bean urease (JBU) (Type III, 40.3 U/mg) were offered by Sigma; purchased Sigma Type III, 40.3 U/mg (catalogue number not given)", "T1 sequence (P07374 whole entry, looked up)": "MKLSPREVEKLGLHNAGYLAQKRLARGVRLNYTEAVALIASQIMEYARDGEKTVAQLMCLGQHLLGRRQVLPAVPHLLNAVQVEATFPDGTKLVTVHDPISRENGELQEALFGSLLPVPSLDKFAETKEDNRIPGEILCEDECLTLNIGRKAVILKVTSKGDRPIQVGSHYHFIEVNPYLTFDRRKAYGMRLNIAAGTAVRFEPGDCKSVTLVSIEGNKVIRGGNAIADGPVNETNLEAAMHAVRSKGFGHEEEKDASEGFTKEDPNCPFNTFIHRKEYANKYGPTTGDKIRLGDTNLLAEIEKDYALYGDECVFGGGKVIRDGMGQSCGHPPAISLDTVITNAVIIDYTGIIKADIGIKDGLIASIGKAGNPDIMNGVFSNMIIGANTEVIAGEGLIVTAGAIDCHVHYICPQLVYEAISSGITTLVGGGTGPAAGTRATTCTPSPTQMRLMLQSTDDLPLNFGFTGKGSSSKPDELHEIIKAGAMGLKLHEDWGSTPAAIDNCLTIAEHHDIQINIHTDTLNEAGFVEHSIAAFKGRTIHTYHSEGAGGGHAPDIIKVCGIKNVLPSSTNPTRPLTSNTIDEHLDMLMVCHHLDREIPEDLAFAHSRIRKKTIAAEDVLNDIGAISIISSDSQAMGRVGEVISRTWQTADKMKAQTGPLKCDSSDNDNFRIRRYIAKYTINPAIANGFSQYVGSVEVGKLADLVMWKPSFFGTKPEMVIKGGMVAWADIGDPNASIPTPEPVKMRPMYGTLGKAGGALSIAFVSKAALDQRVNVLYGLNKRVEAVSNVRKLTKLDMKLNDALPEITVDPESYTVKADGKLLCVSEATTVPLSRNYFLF", "experiment": "biochemical"}, "[3]": {"target": "T2, H. pylori urease (HPU) (Helicobacter pylori, UniProt P69996)", "T2 construct": "endogenous in cells; host or cells: Helicobacter pylori ATCC 43504 (extract, method of Matsubara et al. 2003)", "T2 sequence (P69996 whole entry)": "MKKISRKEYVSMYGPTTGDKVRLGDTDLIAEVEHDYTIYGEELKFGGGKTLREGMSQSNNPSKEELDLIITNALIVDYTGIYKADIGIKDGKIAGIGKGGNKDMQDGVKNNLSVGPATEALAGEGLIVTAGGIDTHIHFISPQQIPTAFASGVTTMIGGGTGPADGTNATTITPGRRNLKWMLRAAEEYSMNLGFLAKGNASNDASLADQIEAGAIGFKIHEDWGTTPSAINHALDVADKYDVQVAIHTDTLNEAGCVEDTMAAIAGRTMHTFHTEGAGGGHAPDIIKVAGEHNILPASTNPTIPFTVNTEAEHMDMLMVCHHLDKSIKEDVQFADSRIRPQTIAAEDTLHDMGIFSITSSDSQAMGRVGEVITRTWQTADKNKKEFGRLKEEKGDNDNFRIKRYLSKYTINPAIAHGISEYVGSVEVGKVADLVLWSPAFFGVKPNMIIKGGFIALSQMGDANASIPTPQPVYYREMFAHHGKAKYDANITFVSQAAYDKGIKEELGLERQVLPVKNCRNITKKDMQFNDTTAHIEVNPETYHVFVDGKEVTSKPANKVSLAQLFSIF", "T2 sequence (P14916 whole entry, further chain)": "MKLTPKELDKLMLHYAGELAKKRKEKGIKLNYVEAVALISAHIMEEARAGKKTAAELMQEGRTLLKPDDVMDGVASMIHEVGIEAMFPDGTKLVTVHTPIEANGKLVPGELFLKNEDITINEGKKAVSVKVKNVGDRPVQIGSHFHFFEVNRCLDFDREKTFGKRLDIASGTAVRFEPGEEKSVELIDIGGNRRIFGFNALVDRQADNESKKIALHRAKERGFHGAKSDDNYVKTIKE", "experiment": "Urease inhibition test (Berthelot, ammonia at 595 nm)", "assay_type": "biochemical", "protocol": "(§1) The standard strain H. pylori strains (ATCC 43504) were cultured on Mueller‐Hinton agar supplemented with 5% sheep blood. Bacterial cultures were maintained for 72 h at 37°C in a microaerophilic environment (5% O2, 10% CO2, 85% N2). For urease extraction, bacterial cells were harvested by centrifugation (5000×g, 10 min, 4°C) and subsequently washed three times with phosphate‐buffered saline (pH 7.4). Following turbidity adjustment using McFarland standards, H. pylori urease was prepared via a method established by Matsubara et al. ([2003]).\nUrease activity was measured using spectrophotometry. The reaction was initiated by blending a particular amount of enzyme‐containing solution and 150 mM urea in 20 mM HEPES buffer (pH 7.5) at 37°C. Following 20 min, the Berthelot reagent was applied, and the quantity of ammonia produced by the urease‐urea reaction was detected at 595 nm (Wu et al. [2013]). The control group represented the activity of the uninhibited enzyme, which is 100% active. […]\nThen 150 mM urea was added, and the reaction was carried out in the dark for 20 min. Afterward, the Berthelot reagent was added, and the quantity of ammonia produced by the urease‐urea reaction was detected at 595 nm. The residual enzyme activity (RA%) was calculated using the formula: RA% = activity with inhibitor/activity without inhibitor × 100%. […]"}, "[4]": {"test_system": "JBU", "settings": "cited from earlier work"}, "[5]": {"target": "T1, jack bean urease (JBU)", "experiment": "Reactivation of PIC-deactivated urease by GSH", "assay_type": "biochemical", "protocol": "(§2) After 20 min, half of the reaction solution was removed and added to 1.25 mM GSH solution. Enzyme activity was determined before and after the addition of GSH. After co‐incubation for different periods, the residual enzyme activity in the mixtures was detected as described in Section 2.4."}, "[6]": {"target": "T2, H. pylori urease (HPU)", "experiment": "Reactivation of PIC-deactivated urease by GSH", "assay_type": "biochemical", "protocol": "as §2"}, "[7]": {"test_system": "Helicobacter pylori strains (ATCC 43504, HP1869, HP1870)", "experiment": "Minimal inhibitory concentration assay (agar dilution)", "assay_type": "cell-based", "settings": "ATCC43504, 120 h, pH 7.2, 5 days", "protocol": "as §1\nAfter solidification and overnight storage at 4°C to confirm sterility, plates showing no contamination were inoculated with 100 μL of H. pylori suspension (adjusted to McFarland 1.0 standard) and incubated microaerophilically (85% N2, 10% CO2, 5% O2) at 37°C for 5 days."}, "[8]": {"target": "T1, jack bean urease (JBU)", "experiment": "Urease inhibition type and kinetics (Lineweaver-Burk plots, progress curves)", "assay_type": "biochemical", "protocol": "(§3) The Lineweaver‐Burk plots were applied to calculate the change in the Michaelis constant (K M) and maximum velocity (V max). […] Additionally, the inhibition constant was derived by secondary replotting of Lineweaver‐Burk plots. All tests were performed in triplicate.\n(§4) Enzyme activity in both procedures was measured as outlined in Section 2.4. Subsequently, the curve fitting software was used to fit the data according to the following formula: Pt=VS×t+V0−VS(1−e^−kapp×t)/kapp^−1 where, P(t) is the amount of product accumulated after t minutes of reaction, V 0 is the velocity at the start of the reaction, V S is the velocity at which the reaction reaches equilibrium, and kapp is the apparent velocity constant (Breitenbach and Hausinger [1988]). The experiments were repeated three times."}, "[9]": {"target": "T2, H. pylori urease (HPU)", "experiment": "Urease inhibition type and kinetics (Lineweaver-Burk plots, progress curves)", "assay_type": "biochemical", "protocol": "as §3, §4"}, "[10]": {"settings": "20 min preincubation at 37°C, 150 mM urea, pH 7.5, read-out: IC50"}, "[11]": {"settings": "PIC-inactivated urease after adding 1.25 mM GSH"}, "[12]": {"settings": "co-incubation with 1.5 mM PIC for 20 min"}, "[13]": {"settings": "Lineweaver-Burk plot, progress curves"}},
  "note": "Entries after “also recorded” stand apart in the source; their conditions may differ. Where two headings read alike, the source gives them in different places.",
  "data": [
    {"molecule": "O=c1c(-c2ccc(O)cc2)coc2c(O)c(O)ccc12", "note": "[7,8,4′‐trihydroxyisoflavone]", "values": [
      {"measurement": "IC50", "setting": "[1]", "result": 140, "unit": "µM"}
    ]},
    {"molecule": "CC(=O)NO", "note": "[AHA, Acetohydroxamic acid, reference compound]", "values": [
      {"measurement": "IC50", "setting": "[2]; [10]", "result": 20, "unit": "µM"},
      {"measurement": "IC50", "setting": "[3]; [10]", "result": 80, "unit": "µM"}
    ]},
    {"molecule": "O=C(O)[C@H]1O[C@@H](Oc2cc3oc(-c4ccccc4)cc(=O)c3c(O)c2O)[C@H](O)[C@@H](O)[C@@H]1O", "note": "[Baicalin]", "values": [
      {"measurement": "IC50", "setting": "[4]; ref Tan et al. [2013], Yu et al. [2015]", "result": "2740 ± 510", "unit": "µM"}
    ]},
    {"molecule": "Oc1cc(O)cc(/C=C/c2ccc(O)c(O)c2)c1", "note": "[PIC, Piceatannol]", "values": [
      {"measurement": "IC50", "setting": "[2]", "result": "470 ± 10", "unit": "µM"},
      {"measurement": "reversibility of inactivation", "setting": "[5]; GSH reactivation", "result": "reversible"},
      {"measurement": "urease activity restored, of the initial activity", "setting": "[5]; [11]", "result": "about 60%"},
      {"measurement": "initial activity lost", "setting": "[5]; [12]", "result": "approximately 80%"},
      {"measurement": "reversibility of inactivation", "setting": "[6]; GSH reactivation", "result": "reversible"},
      {"measurement": "urease activity restored, of the initial activity", "setting": "[6]; [11]", "result": "about 60%"},
      {"measurement": "initial activity lost", "setting": "[6]; [12]", "result": "approximately 80%"},
      {"measurement": "MIC", "setting": "[7]; pH 7.2, clinical strain HP1869, Mueller-Hinton agar", "result": 100, "unit": "µg/mL"},
      {"measurement": "MIC", "setting": "[7]; pH 7.2, clinical strain HP1870, Mueller-Hinton agar", "result": 100, "unit": "µg/mL"},
      {"measurement": "MIC", "setting": "[7]; pH 7.2, strain ATCC 43504 (standard strain), Mueller-Hinton agar", "result": 150, "unit": "µg/mL"},
      {"measurement": "IC50", "setting": "[3]", "result": "670 ± 20", "unit": "µM"},
      {"measurement": "Ki", "setting": "[8]", "result": "340 ± 50", "unit": "µM"},
      {"measurement": "inhibition type", "setting": "[8]; [13]", "result": "slow‐binding, non‐competitive inhibitor; also recorded: non‐competitive type; also recorded: slow‐binding inhibition"},
      {"measurement": "Ki", "setting": "[9]", "result": "630 ± 20", "unit": "µM"},
      {"measurement": "inhibition type", "setting": "[9]; [13]", "result": "slow‐binding, mixed inhibitor; also recorded: mixed‐type inhibitor; also recorded: slow‐binding inhibition"},
      {"measurement": "inhibitory constant Kis", "setting": "[9]; secondary replot of Lineweaver-Burk intercepts", "result": "0.94 ± 0.01", "unit": "mM"}
    ]},
    {"molecule": "O=C(O)[C@H]1O[C@@H](Oc2cc3oc(-c4ccc(O)cc4)cc(=O)c3c(O)c2O)[C@H](O)[C@@H](O)[C@@H]1O", "note": "[scutellarin]", "values": [
      {"measurement": "IC50", "setting": "[4]; ref Wu et al. [2013]", "result": "1350 ± 150", "unit": "µM"}
    ]}
  ]
}
